In article PMC12693523, “Aldose Reductase Inhibition by Orthosiphon stamineus Extracts and Constituents Suggests Antioxidant Potential” (Molecules, 2025):

Target: T1, aldose reductase (AKR1B1) (Homo sapiens, UniProt P15121)
T1 construct: recombinant human AKR1B1 protein (His Tag)
Test: NADPH consumption at […] nm with DL-glyceraldehyde, recombinant enzyme
Assay type: biochemical

SMILES	IC50
COc1ccc(-c2cc(=O)c3c(O)c(OC)c(OC)cc3o2)cc1O [EUP, eupatorin]	203 ± 0.24 µM
O=C(/C=C/c1ccc(O)c(O)c1)O[C@H](Cc1ccc(O)c(O)c1)C(=O)O [RA, rosmarinic acid]	41.4 ± 0.04 µM
